A short description of series [1]: Emulsion Test (3 wt% brine / heptane). It counts as physicochemical. More on the design: Emulsion thickness after 30 mins: unit not given here. The settings on record: for Time to break emulsion: 1 ml of 35 wt% IPA solution, 50 ml 3 wt% brine, 50 ml heptane; for Appearance after 30 mins, hydrocarbon: hydrocarbon layer; for Appearance after 30 mins, hydrocarbon / Appearance after 30 mins, water / Emulsion thickness after 30 mins: 50 ml 3 wt% brine/50 ml heptane; for Appearance after 30 mins, water: water layer. The protocol: 1 ml of the solutions used for Test A was shaken with 50 ml of 3 wt% brine and 50 ml of heptane for 1 minute in a 150 ml bottle. The emulsion was observed, and the time noted for the emulsion to break and form a clean interface with clear liquid layers. If at 30 minutes this had not occurred, the appearance was recorded together with the thickness of any persisting emulsion.

Series [2] in a line: Corrosion inhibition tests, constant concentration conditions (overall). The protocol: (§1) For each compound three mild steel coupons (approximately 100 mm×12 mm×1.5 mm) were tested at each concentration. Each was contacted in a 250 ml bottle with 200 ml of a test fluid either saturated with a carbon dioxide at 20° C. or containing 100 ppm hydrogen sulphide or having both CO2 and H2 S present in those amounts. The test fluid was treated with a 30% aqueous solution of the compound under test at 2, 10, 50 and 250 ppm except where indicated to the contrary. The coupon was subjected to a dynamic wheel test in which the bottle was mounted radially on the periphery of 650 mm diameter wheel which was rotated at about 40 rpm for 24 hours at 70° C. The weight loss was obtained, and also measured in a control experiment where no inhibitor was present. From this the % protection was calculated as % reduction in weight loss.

Series [3] is described as follows: Corrosion Test 1 (dynamic wheel test; 3 wt% brine/Mentor 28; CO2 + H2S). The settings on record: 24 h, 70° C., 30% solution. The gist of the method: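 Mild steel coupons exposed to 3 wt% brine/Mentor 28 kerosene (1:1) saturated with CO2 plus 100 ppm H2S, inhibitor dosed at 2, 10, 50 and 250 ppm (as 30% aqueous solution). Bottles rotated on a wheel at about 40 rpm for 24 h at 70° C; % protection = reduction in weight loss versus uninhibited control.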

Series [4] in a line: Corrosion Test 4 (dynamic wheel test; 3 wt% brine + Mentor 28; H2S). The settings on record: 24 h, 70° C. The gist of the method:
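Three mild steel coupons per concentration were exposed to 100 ml 3 wt% brine plus 100 ml Mentor 28 with 100 ppm H2S after a nitrogen purge. Compound was dosed as a 30% aqueous solution at 2, 10, 50 and 250 ppm. Bottles were rotated on a wheel at about 40 rpm for 24 h at 70 °C; % protection = % reduction in weight loss versus uninhibited control.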

Series [5] can be described thus: Solubility Test (35 wt% solution in isopropylalcohol shaken with water, brine or heptane). The settings on record: for SOLUBILITY IN: Heptane: 0.3 ml of 35 wt% IPA solution in 10 ml heptane, 30 minutes and 24 hours; for SOLUBILITY IN: Water: 0.3 ml of 35 wt% IPA solution in 10 ml water, observed after 30 minutes and 24 hours. Format: physicochemical. As for the experimental part:
The active material under test was made up into a 35 wt% solution in isopropylalcohol (IPA). 0.3 ml of this solution was shaken with 10 ml of each of the liquids in which solubility is to be tested: water, 5 wt% NaCl solution (brine) and heptane. The mixture was observed after 30 minutes and 24 hours.

The nature of series [6]: Corrosion Test 2 (dynamic wheel test; 3 wt% brine; CO2 + H2S). The settings on record: 24 h, 70° C. The gist of the method: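 Mild steel coupons in 200 ml 3 wt% brine saturated with CO2 plus 100 ppm H2S; inhibitor dosed at 2, 10, 50 and 250 ppm of a 30% aqueous solution. Dynamic wheel test at about 40 rpm, 24 hours, 70° C. % protection is the % reduction in weight loss vs an uninhibited control, three coupons per concentration.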

Series [7] in a line: Film persistency corrosion test. The settings on record: CO2 + H2S, 24 h, 70° C. As for the experimental part: […] A test fluid made up of equal proportions of 3 wt% brine and Mentor 28 was used, saturated with CO2 and containing 100 ppm H2 S as corrosives. Coupons were used as described for the previous corrosion test. A coupon was first immersed in test fluid containing corrosives and the inhibitor under test for 1 hour, then rinsed for 1 hour in a similar test fluid containing no inhibitor and finally transferred to a further test fluid again containing no inhibitor in which the dynamic wheel test was carried out at 70° C. for 24 hours.

Series [8] in a line: Corrosion Test 3 (dynamic wheel test; 3 wt% brine + Mentor 28; CO2 only). The settings on record: 24 h, 70° C. As for the experimental part:
as §1
Test fluid: 100 ml 3 wt% brine+100 ml Mentor 28
Corrosives: Saturated CO2 only

`CCCCCCCCCCCCN(CCc1ccccn1)CCc1ccccn1` [Example 19]: the “Time to break emulsion” value in series [1] was above 30 min. Also, the “Appearance after 30 mins, hydrocarbon” value in series [1] was “hazy”. Further, the “Appearance after 30 mins, water” value in series [1] is listed as “hazy”. Besides, the “performance of 2:1 derivatives compared with 1:1 derivatives” value in series [2] is reported as “tended to perform less well than 1:1 derivatives”. Besides, the “% Protection” value is 16% in series [3] (2 ppm); 71% in series [3] (10 ppm); 77% in series [3] (50 ppm); 86% in series [3] (250 ppm); 2% in series [4] (2 ppm); 57% in series [4] (10 ppm). For the same compound, the “% Protection” value in series [4] (250 ppm) was found to be 57%. In addition, in series [5], the “SOLUBILITY IN: Heptane” value is “S”. The “SOLUBILITY IN: Water” value in series [5] is “S”.

Take `c1ccc(CN(CCc2ccccn2)CCc2ccccn2)cc1` [Example 20]: in series [1], the “Time to break emulsion” value amounted to 1 min. In series [1], the “Appearance after 30 mins, hydrocarbon” value is “clear”. Moreover, the “Appearance after 30 mins, water” value in series [1] is “clear”. In addition, the “% Protection” value amounted to 51% in series [6] (2 ppm); 63% in series [6] (10 ppm); 75% in series [6] (50 ppm); 91% in series [6] (250 ppm); 24% in series [3] (2 ppm); 25% in series [3] (10 ppm). Moreover, the “% Protection” value stood at 63% in series [3] (50 ppm) and 81% in series [3] (250 ppm). Also, the “performance of 2:1 derivatives compared with 1:1 derivatives” value in series [2] is recorded as “tended to perform less well than 1:1 derivatives”. In addition, the “SOLUBILITY IN: Heptane” value in series [5] is listed as “S”. The “SOLUBILITY IN: Water” value in series [5] was “S”.

As to `CCCCCCCCCCCCNCCc1ccncc1` [Example 25], the “% Protection” value in series [7] (500 ppm) worked out at 17%; in series [7] (1000 ppm), 15%; in series [7] (5000 ppm), 20%; in series [6] (2 ppm) it was 5%; in series [6] (10 ppm) it was 44%; in series [6] (50 ppm) it was 79%. Moreover, the “% Protection” value is recorded as 94% in series [6] (250 ppm); 28% in series [3] (2 ppm); 53% in series [3] (10 ppm); 88% in series [3] (50 ppm); 96% in series [3] (250 ppm); 11% in series [4] (2 ppm). Also, the “% Protection” value in series [4] (10 ppm) is on record as 17%; in series [4] (50 ppm), 57%; in series [4] (250 ppm), 78%; in series [8] (2 ppm), 10%; in series [8] (10 ppm), 6%; in series [8] (50 ppm), 21%. For the same compound, the “% Protection” value in series [8] (250 ppm) was 27%. Further, in series [1], the “Time to break emulsion” value was above 30 min. Besides, the “Emulsion thickness after 30 mins” value in series [1] is reported as 0.2. The “Appearance after 30 mins, hydrocarbon” value in series [1] is given as “hazy”. Moreover, in series [1], the “Appearance after 30 mins, water” value is given as “hazy”. For the same compound, in series [5], the “SOLUBILITY IN: Heptane” value is reported as “S”. Besides, the “SOLUBILITY IN: Water” value in series [5] is reported as “S”.

As for `CCCCCCCCCCCCCCCCCCNCCc1ccncc1` [Example 28], the “% Protection” value in series [7] (500 ppm) came out at 16%; in series [7] (1000 ppm), 16%; in series [7] (5000 ppm), 23%; in series [6] (2 ppm), 11%; in series [6] (10 ppm), 94%; in series [6] (50 ppm), 96%. For the same compound, the “% Protection” value amounted to 95% in series [6] (250 ppm); 8% in series [3] (2 ppm); 23% in series [3] (10 ppm); 48% in series [3] (50 ppm); 87% in series [3] (250 ppm); 2% in series [4] (2 ppm). For the same compound, the “% Protection” value came to 3% in series [4] (10 ppm); 49% in series [4] (50 ppm); 56% in series [4] (250 ppm); 8% in series [8] (2 ppm); 12% in series [8] (10 ppm); 9% in series [8] (250 ppm). Also, in series [1], the “Time to break emulsion” value was above 30 min. Further, the “Emulsion thickness after 30 mins” value in series [1] was determined as 4.0. For the same compound, in series [1], the “Appearance after 30 mins, hydrocarbon” value is reported as “hazy”. Besides, the “Appearance after 30 mins, water” value in series [1] is reported as “clear”. Also, the “SOLUBILITY IN: Water” value in series [5] is given as “S”.

In the case of `CCCCCCN(CCc1ccncc1)CCc1ccncc1` [Example 38], in series [1], the “Time to break emulsion” value was determined as 1 min. In addition, the “Appearance after 30 mins, hydrocarbon” value in series [1] was “clear”. For the same compound, the “Appearance after 30 mins, water” value in series [1] is “clear”. Moreover, the “performance of 2:1 derivatives compared with 1:1 derivatives” value in series [2] is given as “tended to perform less well than 1:1 derivatives”. Besides, the “% Protection” value in series [3] (2 ppm) is 2%; in series [3] (10 ppm) it was 64%; in series [3] (50 ppm), 79%; in series [3] (250 ppm), 80%.

Turning to `CCCCCCCCCCCCN(CCc1ccncc1)CCc1ccncc1` [Example 39], the “% Protection” value is 20% in series [7] (500 ppm); 24% in series [7] (1000 ppm); 33% in series [7] (5000 ppm); 41% in series [6] (2 ppm); 65% in series [6] (10 ppm); 78% in series [6] (50 ppm). Further, the “% Protection” value came to 87% in series [6] (250 ppm); 26% in series [3] (2 ppm); 70% in series [3] (10 ppm); 89% in series [3] (50 ppm); 89% in series [3] (250 ppm); 3% in series [4] (2 ppm). The “% Protection” value is listed as 26% in series [4] (10 ppm); 64% in series [4] (50 ppm); 85% in series [4] (250 ppm); 9% in series [8] (2 ppm); 5% in series [8] (10 ppm); 15% in series [8] (250 ppm). Further, the “Time to break emulsion” value in series [1] is above 30 min. The “Emulsion thickness after 30 mins” value in series [1] was found to be 0.1. For the same compound, in series [1], the “Appearance after 30 mins, hydrocarbon” value is reported as “hazy”. In addition, the “Appearance after 30 mins, water” value in series [1] is given as “hazy”. The “performance of 2:1 derivatives compared with 1:1 derivatives” value in series [2] was “tended to perform less well than 1:1 derivatives”.
